{"source": "patent US8148603B2", "about": "“Transgenic ficus, method for producing same and use thereof” (The State of Israel, Ministry of Agriculture & Rural …, priority 2004, dated 2012)", "type_in_all_cases": "in vivo", "key": {"[1]": {"tested_on": "Ficus carica cv. Brown Turkey plants", "assay": "Herbicide resistance in control and transgenic Brown Turkey tissue culture", "from_the_text": "The pME504 plasmid which comprises the bar gene [Streptomyces hygroscopicus bar gene conferring resistance to herbicide bialaphos (X05822) Thompson, C. J., Movva, N. R., Tizard, R., Crameri, R., Davies, J. E., Lauwereys, M. and Botterman, J. Characterization of the herbicide-resistance gene bar from Streptomyces hygroscopicus EMBO J. 6, 2519-2523 (1987)] was used to transform ‘Brown Turkey’ plants. Herbicide resistance in control and transgenic Brawn Turkey cv. tissue culture line 001 was evaluated."}, "Ficus carica shoots [2]": {"tested_on": "Ficus carica shoots", "assay": "Root formation of regenerated shoots, rooting in solid medium", "conditions": "for Root formation (%) ± SE, Rooting in solid medium: scored after 4 weeks", "protocol": "(§1) Two methods for rooting were examined. According to one method, each shoot was cultivated individually in a tube with root induction (RI) medium composed of half concentration MS medium (½MS) supplemented with 100 mg/l myo-inositol, 1 mg/l thiamine-HCl, 90 mg/l phloroglucinol, 2% sucrose (w/v), 0.25% activated charcoal (AC) and 0.8% agar (pH=5.7). The effect of IBA at different concentrations (0, 1, 2 mg/l) was also tested. Each treatment included 32 individual plants. According to another method, well developed shoots (up to 3-4 cm long with 3-4 expanded leaves) were directly transplanted from the proliferation medium to Rooting Cylinders (3.5 cm high×3.0 cm in diameter) with soil mixture comprising 55% granular polypropylene foam, 30% peat and 15% perlite (Tivonchem Ltd, Israel) moistened/soaked/with liquid RI medium without AC, supplemented with either 0, 1, 2 mg/l IBA. Results were scored (0=shoot with no root; 1=rotting shoot) after 4 weeks and based on 32 shoots (8 Magenta boxes with 4 cylinders) per treatment. Each experiment was repeated three times. Plantlets were cultured in closed boxes for one week in a growth chamber and then transferred for one week to a greenhouse. Then the plantlets were further transferred to a high humidity chamber without closures for additional 2 weeks for further acclimatization by decreasing the relative humidity stepwise.\n(§2) Two methods were examined to obtained root induction (Table 1). According to the first approach, each regenerated shoot was placed in a tube containing root induction medium comprising 2 mg/l IBA. Using this method, ca. 80% of the shoots formed roots. However, insufficient percentage of these plants was successfully acclimatized in the greenhouse conditions. According to the second approach, regenerated shoots were cultured directly in rooting cylinders, with or without 1 mg/l IBA. […] These plants had better hardening and growth characteristics and easier further acclimatization in the greenhouse conditions (FIG. 5)."}, "Ficus carica shoots [3]": {"tested_on": "Ficus carica shoots", "assay": "Root formation of regenerated shoots, rooting in liquid medium", "conditions": "for Root formation (%) ± SE, Rooting in liquid medium: scored after 4 weeks", "protocol": "as §1, §2"}, "[4]": {"tested_on": "Ficus carica leaf explants", "assay": "Adventitious shoot regeneration from leaf explants", "conditions": "control explants with TDZ only (0.5-5 mg/l); cv. Brown Turkey", "protocol": "Regeneration experiments were carried out initially with the cultivar Brown Turkey. To examine the effect of culture media on adventitious bud formation, the basal media MS, AP [13] and NN [14]; and various combinations of the auxins IBA and NAA (0.25-2 mg/l), NAA with the cytokinins TDZ (0.5-5 mg/l) and BA (2-5 mg/l) were examined. A control treatment with only TDZ (0.5-5 mg/l) was performed. The regeneration media contained MS basal salt mixture, supplemented with 100 mg/l myo-inositol, 1 mg/l thiamine-HCl, 2-4% sucrose (w/v) and 0.8%, agar (Sigma), at pH 5.7. The effect of the addition of 0.25% activated charcoal (AC) was also examined.\nThe youngest three expanded leaves isolated from 3-4 weeks old plants were used as explants. Each leaf was wounded forming three scares perpendicular to the central vein and placed on regeneration medium with the abaxial or adaxial surface down. Minimum ten Petri dishes, each containing ten explants were used per treatment. The cultures were kept for 7 days in low light intensity (2.5 μmol/m^2 s) followed by exposure to high light intensity (40 μmol/m^2 s) at 25° C., in a 16 hL/8 hD photoperiod. Leaf explants were examined after 28 and 35 days and the percentage of explant producing shoots (regeneration capacity) and the mean of adventitious shoots formed per regenerating explant (regeneration efficacy) were recorded. […]"}, "[5]": {"tested_on": "Ficus carica leaf explants and shoots", "assay": "Tolerance of non-inoculated leaf explants and of shoots to kanamycin", "protocol": "In order to use kanamycin as a selection agent for transformed cells, non-inoculated leaf explants from in vitro fig cultures of both cultivars Brown Turkey and Smyrna were tested for their tolerance to kanamycin. Wounded leaves were placed on a regeneration medium supplemented with kanamycin at a concentration selected from 0, 10, 25, 50, 75 and 100 mg/l. The minimal concentration for inhibition of adventitious shoot induction for cv. Brown Turkey was 25 mg/l. However with cv. […] Therefore, the concentration of 50 mg/l kanamycin was initially chosen for selection in the subsequent transformation experiments.\nLeaf explants of 3-4 weeks old in vitro propagated Ficus carica plants were wounded across the main vein and co-cultivated with the disarmed strain EHA105 harboring the plasmid pME504, comprising the genes GUS-int and npt II. Following co-cultivation with A. tumefaciens, explants were initially placed on regeneration medium supplemented with 50 mg/l kanamycin and 150 mg/l ticarcillin and cultured with their adaxial side up. The leaf explants were exposed for one week to low light intensity and then transferred to normal light. Under the selective conditions of 50 mg/l kanamycin, up to 30% of the explants of Brown Turkey and up to 50% of Smyrna formed green shoots after 4 weeks of culture. […]"}}, "data": [{"smiles": "CP(=O)(O)CC[C@H](N)C(=O)O", "note": "[Basta, phosphinothricin]", "values": [{"measurement": "herbicide effect on non-transformed plants", "setting": "[1]; control Brown Turkey cv., increasing concentrations of PPT (FIG. 11)", "result": "signs of necrosis and chlorosis on basal leaves following two days and died one week later"}, {"measurement": "herbicide effect on resistant (bar transgenic) lines", "setting": "[1]; transgenic Brown Turkey cv. tissue culture line 001, 10 ppm Basta", "result": "propagated in vitro"}]}, {"smiles": "O=C(O)CCCc1c[nH]c2ccccc12", "note": "[IBA, indol-3-butyric acid]", "values": [{"measurement": "Root formation (%) ± SE, Rooting in solid medium", "setting": "Ficus carica shoots [2]; IBA 1 mg/l", "result": 100, "unit": "%"}, {"measurement": "Root formation (%) ± SE, Rooting in solid medium", "setting": "Ficus carica shoots [2]; IBA 2 mg/l", "result": "83 ± 6.27", "unit": "%"}, {"measurement": "shoots that formed roots", "setting": "Ficus carica shoots [2]; each shoot in a tube with root induction medium, 2 mg/l IBA", "result": "ca. 80%"}, {"measurement": "Root formation (%) ± SE, Rooting in liquid medium", "setting": "Ficus carica shoots [3]; IBA 1 mg/l", "result": "47 ± 5.43", "unit": "%"}, {"measurement": "Root formation (%) ± SE, Rooting in liquid medium", "setting": "Ficus carica shoots [3]; IBA 2 mg/l", "result": "81.3 ± 7.61", "unit": "%"}, {"measurement": "root formation", "setting": "Ficus carica shoots [3]; shoots directly in rooting cylinders, with or without 1 mg/l IBA, after 4 weeks", "result": 100, "unit": "%"}]}, {"smiles": "O=C(Nc1ccccc1)Nc1cnns1", "note": "[TDZ, N-phenyl-N′-1,2,3-thiadiazol-5-yl urea]", "values": [{"measurement": "regeneration frequency", "setting": "[4]", "result": "ca. 2%"}]}, {"smiles": "NC[C@H]1O[C@H](O[C@H]2[C@H](O)[C@@H](O[C@H]3O[C@H](CO)[C@@H](O)[C@H](N)[C@H]3O)[C@H](N)C[C@@H]2N)[C@H](O)[C@@H](O)[C@@H]1O", "note": "[kanamycin]", "values": [{"measurement": "effect on new emerging transgenic shoots", "setting": "[5]; more than 3 subcultures at 100 mg/l kanamycin on proliferation medium", "result": "inhibition of their growth and development"}, {"measurement": "minimal concentration for inhibition of adventitious shoot induction", "setting": "[5]; non-inoculated leaf explants, cv. Brown Turkey", "result": 25, "unit": "mg/L"}]}]}
